Measurements reported in PMC11062922 (Nature Chemical Biology, 2023).
Read-outs that look alike come from different tables or passages of the source.

Experiments:
[1] = biological target: T1, ACAD11 (Homo sapiens, UniProt Q709F0); assay: Kinobeads two-dose competition binding: ACAD11; details: sheet CATDS matrix 2; Gene Name ACAD11
T1 construct: endogenous in cells
T1 sequence (Q709F0 1-780): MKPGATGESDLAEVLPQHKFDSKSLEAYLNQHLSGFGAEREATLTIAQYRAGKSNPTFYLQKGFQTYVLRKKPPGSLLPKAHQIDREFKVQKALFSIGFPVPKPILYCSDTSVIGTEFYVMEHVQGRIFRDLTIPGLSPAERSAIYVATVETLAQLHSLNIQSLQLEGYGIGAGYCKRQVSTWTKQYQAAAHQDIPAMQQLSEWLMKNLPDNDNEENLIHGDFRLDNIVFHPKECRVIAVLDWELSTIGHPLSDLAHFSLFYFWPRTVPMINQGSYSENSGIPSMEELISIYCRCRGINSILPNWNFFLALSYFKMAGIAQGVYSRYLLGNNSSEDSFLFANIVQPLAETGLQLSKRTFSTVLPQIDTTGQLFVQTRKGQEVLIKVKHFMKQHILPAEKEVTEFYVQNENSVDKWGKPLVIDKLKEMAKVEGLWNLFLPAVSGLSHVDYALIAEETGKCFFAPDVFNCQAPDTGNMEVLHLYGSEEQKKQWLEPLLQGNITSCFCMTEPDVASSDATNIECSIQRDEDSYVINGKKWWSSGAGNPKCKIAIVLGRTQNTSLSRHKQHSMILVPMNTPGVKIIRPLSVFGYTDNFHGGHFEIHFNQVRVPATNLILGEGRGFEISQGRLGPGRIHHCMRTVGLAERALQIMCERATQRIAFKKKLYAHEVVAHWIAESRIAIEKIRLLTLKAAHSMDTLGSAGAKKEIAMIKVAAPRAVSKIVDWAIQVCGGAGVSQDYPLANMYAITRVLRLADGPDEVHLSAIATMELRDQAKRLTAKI

[2] = biological target: T2, AAK1 (Homo sapiens, UniProt Q2M2I8); assay: Kinobeads two-dose competition binding: AAK1; details: for CATDS: sheet CATDS matrix 2, Gene Name AAK1; for potency estimated from few doses: sheet "Kinobeads Drugmatrix - all", unit inferred, same values below 1000 recur in sheet "nanomolar", read-out: Kinobeads Drugmatrix - all: apparent Kd, AAK1;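 for all read-outs here: kinobeads competition pulldown from cell lysate, compound preincubated 45 min at 4 °C, bead-bound protein measured by label-free mass spectrometry against DMSO vehicle control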
T2 construct: to maximize the representation of endogenous proteins; endogenous in cells
T2 sequence (Q2M2I8 whole entry): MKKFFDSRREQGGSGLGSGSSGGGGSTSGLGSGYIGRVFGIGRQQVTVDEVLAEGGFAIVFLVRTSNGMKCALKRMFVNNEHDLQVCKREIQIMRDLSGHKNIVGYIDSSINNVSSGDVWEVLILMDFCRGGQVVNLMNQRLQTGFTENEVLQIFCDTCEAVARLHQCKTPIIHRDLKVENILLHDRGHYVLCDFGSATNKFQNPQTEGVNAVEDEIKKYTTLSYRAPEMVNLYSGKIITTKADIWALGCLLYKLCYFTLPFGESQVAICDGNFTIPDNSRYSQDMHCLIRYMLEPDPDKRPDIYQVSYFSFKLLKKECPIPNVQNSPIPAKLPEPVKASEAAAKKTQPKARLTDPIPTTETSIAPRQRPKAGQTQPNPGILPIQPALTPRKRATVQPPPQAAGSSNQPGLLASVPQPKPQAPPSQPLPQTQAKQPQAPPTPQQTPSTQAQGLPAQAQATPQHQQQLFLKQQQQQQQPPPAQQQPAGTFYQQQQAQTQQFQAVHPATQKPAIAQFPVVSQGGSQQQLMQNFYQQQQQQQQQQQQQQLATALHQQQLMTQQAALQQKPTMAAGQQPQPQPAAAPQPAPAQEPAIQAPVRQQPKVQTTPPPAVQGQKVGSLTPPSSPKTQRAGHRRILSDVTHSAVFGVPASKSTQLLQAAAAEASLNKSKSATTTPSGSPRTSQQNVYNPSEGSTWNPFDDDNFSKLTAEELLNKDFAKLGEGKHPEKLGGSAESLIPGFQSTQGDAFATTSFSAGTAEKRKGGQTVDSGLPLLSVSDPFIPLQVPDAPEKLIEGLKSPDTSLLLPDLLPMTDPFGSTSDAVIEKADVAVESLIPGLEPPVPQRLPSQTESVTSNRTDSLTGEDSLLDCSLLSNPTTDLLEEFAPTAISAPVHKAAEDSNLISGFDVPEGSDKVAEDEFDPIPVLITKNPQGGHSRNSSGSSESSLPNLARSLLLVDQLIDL

[3] = biological target: T3, ABL2 (Homo sapiens, UniProt P42684); assay: Kinobeads two-dose competition binding: ABL2; details: sheet CATDS matrix 2; Gene Name ABL2
T3 construct: endogenous in cells
T3 sequence (P42684 whole entry): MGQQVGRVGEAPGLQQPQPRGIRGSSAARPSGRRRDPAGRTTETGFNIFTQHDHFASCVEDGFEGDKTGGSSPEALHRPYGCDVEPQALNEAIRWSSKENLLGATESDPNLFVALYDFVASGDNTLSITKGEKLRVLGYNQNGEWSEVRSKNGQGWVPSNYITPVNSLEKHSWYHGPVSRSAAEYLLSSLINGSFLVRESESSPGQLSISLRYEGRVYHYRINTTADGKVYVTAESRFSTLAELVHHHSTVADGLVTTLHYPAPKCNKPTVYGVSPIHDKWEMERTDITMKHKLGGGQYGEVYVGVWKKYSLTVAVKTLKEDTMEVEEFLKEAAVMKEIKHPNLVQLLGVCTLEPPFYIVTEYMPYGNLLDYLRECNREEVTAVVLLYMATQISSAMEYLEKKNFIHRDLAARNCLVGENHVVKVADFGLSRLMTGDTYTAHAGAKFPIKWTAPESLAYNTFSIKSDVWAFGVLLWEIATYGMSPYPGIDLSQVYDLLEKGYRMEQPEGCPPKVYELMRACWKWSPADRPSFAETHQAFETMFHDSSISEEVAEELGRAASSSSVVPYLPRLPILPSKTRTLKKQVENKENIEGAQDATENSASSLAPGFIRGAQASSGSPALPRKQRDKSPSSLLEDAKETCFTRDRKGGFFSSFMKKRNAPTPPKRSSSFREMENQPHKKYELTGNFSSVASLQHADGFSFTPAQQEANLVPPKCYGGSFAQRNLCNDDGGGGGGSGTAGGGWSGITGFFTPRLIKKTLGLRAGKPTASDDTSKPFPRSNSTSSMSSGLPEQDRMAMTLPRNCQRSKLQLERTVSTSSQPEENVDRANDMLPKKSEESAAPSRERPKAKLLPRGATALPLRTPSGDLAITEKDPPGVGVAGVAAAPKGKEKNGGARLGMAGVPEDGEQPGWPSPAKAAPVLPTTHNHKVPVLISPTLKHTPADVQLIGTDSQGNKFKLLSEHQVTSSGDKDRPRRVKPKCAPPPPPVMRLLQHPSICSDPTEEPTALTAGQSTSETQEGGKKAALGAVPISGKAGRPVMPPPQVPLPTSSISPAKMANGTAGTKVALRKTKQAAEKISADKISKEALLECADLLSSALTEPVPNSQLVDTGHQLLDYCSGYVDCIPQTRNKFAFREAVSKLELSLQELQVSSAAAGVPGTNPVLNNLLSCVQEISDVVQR

[4] = biological target: T4, ABCD3 (Homo sapiens, UniProt P28288); assay: Kinobeads two-dose competition binding: ABCD3; details: sheet "Kinobeads Drugmatrix - all"; unit inferred; read-out: Kinobeads Drugmatrix - all: apparent Kd, ABCD3
T4 construct: endogenous in cells
T4 sequence (P28288 1-659): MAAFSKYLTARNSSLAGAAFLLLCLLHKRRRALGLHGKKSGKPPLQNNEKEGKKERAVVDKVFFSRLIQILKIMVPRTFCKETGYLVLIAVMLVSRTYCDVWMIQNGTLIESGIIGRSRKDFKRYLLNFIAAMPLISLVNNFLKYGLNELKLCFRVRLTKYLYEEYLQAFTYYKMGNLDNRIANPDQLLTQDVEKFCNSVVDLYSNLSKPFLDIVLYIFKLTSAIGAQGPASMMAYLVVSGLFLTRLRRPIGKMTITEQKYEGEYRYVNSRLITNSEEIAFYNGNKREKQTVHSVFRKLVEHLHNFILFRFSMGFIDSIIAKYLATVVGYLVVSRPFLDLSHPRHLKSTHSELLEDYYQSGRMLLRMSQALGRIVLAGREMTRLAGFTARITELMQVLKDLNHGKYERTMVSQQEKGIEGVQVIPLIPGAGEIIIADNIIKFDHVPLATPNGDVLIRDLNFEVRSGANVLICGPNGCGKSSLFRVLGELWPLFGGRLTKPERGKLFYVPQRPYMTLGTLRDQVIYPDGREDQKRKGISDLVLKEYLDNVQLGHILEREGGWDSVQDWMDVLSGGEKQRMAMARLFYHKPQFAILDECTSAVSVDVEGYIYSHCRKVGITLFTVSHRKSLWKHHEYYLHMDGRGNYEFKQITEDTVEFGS

[5] = biological target: T5, ACOX1 (Homo sapiens, UniProt Q15067); assay: Kinobeads two-dose competition binding: ACOX1; details: for CATDS: sheet CATDS matrix 2, Gene Name ACOX1;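 for all read-outs here: competition of compounds with immobilized broad-spectrum kinase inhibitor beads in cell lysate at 100 and 1,000 nM, 45 min at 4 °C, bead-bound protein quantified by label-free MS versus DMSO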
T5 construct: endogenous in cells
T5 sequence (Q15067 1-660): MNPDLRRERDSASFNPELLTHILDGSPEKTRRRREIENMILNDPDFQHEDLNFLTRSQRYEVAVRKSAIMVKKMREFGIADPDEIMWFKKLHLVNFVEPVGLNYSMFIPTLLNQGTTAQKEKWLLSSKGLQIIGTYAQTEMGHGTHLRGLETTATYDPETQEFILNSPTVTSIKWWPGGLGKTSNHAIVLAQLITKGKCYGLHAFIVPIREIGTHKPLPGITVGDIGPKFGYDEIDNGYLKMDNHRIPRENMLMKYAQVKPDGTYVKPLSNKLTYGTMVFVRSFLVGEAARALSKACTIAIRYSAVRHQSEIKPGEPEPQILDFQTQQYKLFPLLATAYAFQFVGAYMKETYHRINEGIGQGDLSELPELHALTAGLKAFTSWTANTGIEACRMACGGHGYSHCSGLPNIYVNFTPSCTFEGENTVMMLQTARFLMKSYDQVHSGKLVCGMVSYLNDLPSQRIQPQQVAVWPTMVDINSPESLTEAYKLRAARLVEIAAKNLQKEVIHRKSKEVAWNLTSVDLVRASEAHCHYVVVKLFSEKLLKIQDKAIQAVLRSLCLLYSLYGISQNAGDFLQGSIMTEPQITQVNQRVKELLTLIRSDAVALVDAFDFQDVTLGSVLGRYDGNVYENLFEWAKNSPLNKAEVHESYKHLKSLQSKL

[6] = biological target: ABL1 (Homo sapiens, UniProt P00519); assay: Kinobeads two-dose competition binding: ABL1; details: sheet CATDS matrix 2; Gene Name ABL1
ABL1, sequence (P00519 28-1130 limits assumed): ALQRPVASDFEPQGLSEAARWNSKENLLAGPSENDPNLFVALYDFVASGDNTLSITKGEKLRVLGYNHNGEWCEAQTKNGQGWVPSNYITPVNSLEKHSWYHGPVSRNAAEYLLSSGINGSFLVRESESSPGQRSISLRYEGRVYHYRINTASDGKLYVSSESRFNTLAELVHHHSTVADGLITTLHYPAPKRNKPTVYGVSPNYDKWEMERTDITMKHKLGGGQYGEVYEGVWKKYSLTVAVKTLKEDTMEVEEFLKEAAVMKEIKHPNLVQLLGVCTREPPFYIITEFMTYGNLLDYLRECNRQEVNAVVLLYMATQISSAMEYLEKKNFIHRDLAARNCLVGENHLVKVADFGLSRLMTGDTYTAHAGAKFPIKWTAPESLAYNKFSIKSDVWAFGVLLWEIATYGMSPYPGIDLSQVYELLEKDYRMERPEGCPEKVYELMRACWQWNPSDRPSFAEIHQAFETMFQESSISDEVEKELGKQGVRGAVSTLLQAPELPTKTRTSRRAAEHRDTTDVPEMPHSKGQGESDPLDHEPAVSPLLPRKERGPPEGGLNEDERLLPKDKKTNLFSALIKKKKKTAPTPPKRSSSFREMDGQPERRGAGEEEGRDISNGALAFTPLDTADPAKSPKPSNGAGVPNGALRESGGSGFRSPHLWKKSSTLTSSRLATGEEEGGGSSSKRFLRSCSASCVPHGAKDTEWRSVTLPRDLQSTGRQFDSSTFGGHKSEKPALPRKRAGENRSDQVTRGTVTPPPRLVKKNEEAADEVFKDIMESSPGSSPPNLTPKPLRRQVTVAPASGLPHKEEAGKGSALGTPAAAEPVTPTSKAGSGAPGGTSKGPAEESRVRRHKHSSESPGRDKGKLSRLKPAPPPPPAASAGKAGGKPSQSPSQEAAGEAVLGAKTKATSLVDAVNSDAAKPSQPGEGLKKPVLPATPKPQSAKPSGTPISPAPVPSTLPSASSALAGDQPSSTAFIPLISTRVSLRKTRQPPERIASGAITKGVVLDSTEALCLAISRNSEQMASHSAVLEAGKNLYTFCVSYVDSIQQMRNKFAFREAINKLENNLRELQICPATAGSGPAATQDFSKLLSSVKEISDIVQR

[7] = system: FLT3; assay: Kinobeads two-dose competition binding: FLT3; set-up: species or system human
[8] = biological target: T1, ACAD11; assay: Kinobeads two-dose competition binding: ACAD11; details: sheet "Kinobeads Drugmatrix - all"; unit inferred; read-out: Kinobeads Drugmatrix - all: apparent Kd, ACAD11
[9] = biological target: T6, EPHB6 (Homo sapiens, UniProt O15197); assay: Kinobeads two-dose competition binding: EPHB6
T6 construct: to maximize the representation of endogenous proteins; endogenous in cells
T6 sequence (O15197 32-1021): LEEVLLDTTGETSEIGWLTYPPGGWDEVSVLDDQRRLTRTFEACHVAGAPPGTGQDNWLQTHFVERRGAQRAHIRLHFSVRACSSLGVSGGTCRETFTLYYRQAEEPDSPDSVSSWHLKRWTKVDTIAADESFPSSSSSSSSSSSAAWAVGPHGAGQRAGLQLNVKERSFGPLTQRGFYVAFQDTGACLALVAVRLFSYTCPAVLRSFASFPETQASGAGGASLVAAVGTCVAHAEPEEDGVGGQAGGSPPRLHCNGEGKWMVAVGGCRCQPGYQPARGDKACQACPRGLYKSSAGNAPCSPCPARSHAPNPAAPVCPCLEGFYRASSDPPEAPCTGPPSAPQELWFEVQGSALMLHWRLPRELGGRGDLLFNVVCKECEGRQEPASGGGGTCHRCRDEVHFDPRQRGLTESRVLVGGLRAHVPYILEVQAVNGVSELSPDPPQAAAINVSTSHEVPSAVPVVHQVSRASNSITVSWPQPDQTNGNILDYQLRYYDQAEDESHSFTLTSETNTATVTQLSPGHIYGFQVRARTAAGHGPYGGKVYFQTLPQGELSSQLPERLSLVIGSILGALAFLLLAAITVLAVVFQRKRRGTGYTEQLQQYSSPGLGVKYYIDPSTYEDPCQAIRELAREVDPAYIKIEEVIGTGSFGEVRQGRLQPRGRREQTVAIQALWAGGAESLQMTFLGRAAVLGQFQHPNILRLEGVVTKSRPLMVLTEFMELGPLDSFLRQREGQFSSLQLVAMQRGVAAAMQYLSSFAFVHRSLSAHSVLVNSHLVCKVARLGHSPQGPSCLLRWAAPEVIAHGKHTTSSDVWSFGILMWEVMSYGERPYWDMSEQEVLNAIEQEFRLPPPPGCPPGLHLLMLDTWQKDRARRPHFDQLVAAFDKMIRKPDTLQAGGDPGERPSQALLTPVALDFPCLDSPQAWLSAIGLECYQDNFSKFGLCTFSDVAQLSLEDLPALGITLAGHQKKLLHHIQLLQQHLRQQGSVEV
Excerpt: Briefly, Kinobeads comprise seven broad-spectrum small molecule kinase inhibitors immobilized on Sepharose beads. […]. Compounds of interest are set to compete for target protein binding with Kinobeads in the lysate and the amount of a given protein bound to Kinobeads in the presence of a compound can be quantified relative to a dimethylsulfoxide (DMSO) vehicle control by label-free mass spectrometry. This assay measures the physical interaction of a compound with thousands of endogenous proteins in parallel and, when systematically increasing the concentration of competitor, enables the calculation of an apparent interaction constant ( Kdapp ) for each compound and protein.
Kinobeads pulldown experiments were performed as described previously[13],[14],[17] with minor modification. […] The protein concentration was adjusted to 5 mg ml^−1. Kinase inhibitors were spiked into 0.5 ml of cell lysate at final concentrations of 100 and 1,000 nM (or DMSO, 0.3, 1, 3, 10, 30, 100, 300 and 1,000 nM for full dose experiments). […] Lysates were incubated for 45 min at 4 °C. Subsequently, lysates were incubated with Kinobeads ε (17.5 µl of settled beads) for 30 min at 4 °C. To assess the degree of protein depletion from the lysates by Kinobeads, the flow through of the DMSO control was recovered for a pulldown of pulldown experiment where the lysate was incubated a second time with fresh Kinobeads. Beads were washed in three steps with buffer containing 0.4%, 0.2% and no IGEPAL. Bound proteins were reduced with 50 mM DTT in 8 M Urea, 40 mM Tris-HCl pH 7.4 for 30 min at room temperature. After alkylation with 55 mM chloroacetamide, the urea concentration was reduced to 1–2 M and proteins were digested with trypsin. Acidified peptides were desalted and concentrated using SepPak tC18 µEluation plates (Waters). Samples were frozen, dried by vacuum centrifugation and stored at −20 °C.
Each kinase inhibitor was processed together with all DMSO controls of the same plate. Additionally, each search was supplemented with five high quality DMSO controls for consistent peptide identification and protein grouping. The resultant file (proteinGroups.txt) was used for subsequent filtering, normalization, data visualization and target annotation that was automatically performed by a data processing pipeline built in house that used R (including the ‘drc’ and ‘heatmap’ packages). First, reverse hits, potential contaminants and not quantified proteins in the DMSO control samples were discarded. Protein raw and label-free quantification intensities were normalized to the median DMSO control intensity to obtain relative residual binding intensities for each protein group at every inhibitor concentration and standard deviations of the DMSO control intensity were calculated. IC50 values were estimated based on the following equation IC50=I×100−inhibition/inhibition where [I] is the inhibitor concentration that was used for IC50 calculation and ‘inhibition’ the relative residual binding intensity. […]. Estimated Kdapp values were then calculated by multiplying the estimated IC50 values with a protein-dependent correction factor that was limited to a maximum value of one. The correction factor accounts for the depletion of a target protein from the lysate by Kinobeads. The depletion can be measured by the ratio of the amount of protein captured in two consecutive pulldowns of the same DMSO control lysate. In this study, correction factors were determined in separate experiments using the same lysate mixture and the same bead batch. Correction factors were set to the median of all correction factors. Targets of kinase inhibitors were annotated using the previously published random forest classifier. A training data set was annotated manually. […]

[10] = biological target: T7, GRK6 (Homo sapiens, UniProt P43250); assay: Kinobeads two-dose competition binding: GRK6; details: Kinobeads two-dose, Drugmatrix - all 2; read-out: apparent Kd GRK6
T7 construct: endogenous in cells
T7 sequence (P43250 whole entry): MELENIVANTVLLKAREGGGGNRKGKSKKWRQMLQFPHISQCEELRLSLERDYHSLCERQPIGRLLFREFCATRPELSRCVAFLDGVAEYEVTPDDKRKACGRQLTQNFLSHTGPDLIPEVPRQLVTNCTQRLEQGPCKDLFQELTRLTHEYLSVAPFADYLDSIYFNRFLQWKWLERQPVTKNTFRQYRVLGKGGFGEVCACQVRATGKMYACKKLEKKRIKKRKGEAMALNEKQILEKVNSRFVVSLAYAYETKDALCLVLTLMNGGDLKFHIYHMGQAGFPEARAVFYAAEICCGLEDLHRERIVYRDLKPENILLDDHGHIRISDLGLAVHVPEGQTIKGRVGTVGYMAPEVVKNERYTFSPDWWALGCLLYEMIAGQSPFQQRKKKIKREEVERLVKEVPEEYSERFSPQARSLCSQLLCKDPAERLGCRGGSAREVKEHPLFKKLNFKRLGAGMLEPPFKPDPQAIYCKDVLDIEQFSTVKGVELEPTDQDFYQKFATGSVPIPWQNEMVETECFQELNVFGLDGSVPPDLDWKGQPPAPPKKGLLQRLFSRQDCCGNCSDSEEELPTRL

[11] = selectivity score from Kinobeads two-dose data

SMILES | CATDS [1] | CATDS [2] | CATDS [3] | potency estimated from few doses [4] [µM] | CATDS [5] | CATDS [6] | other results
COc1ccc(Nc2nccc(N3CCC(NC(=O)Nc4ccc5c(c4)OCO5)C3)n2)cc1 (stereo not shown) [GSK1379745A] | 0 | 0 | 0 | > 1 | 0 | 0 | 
O=C1Nc2ccc(F)cc2/C1=C/c1ccc[nH]1 [RO0272148-000] |  |  |  |  |  |  | potency estimated from few doses ([7]; Kinobeads two-dose (100 nM and 1 µM), mixed cell lysate, read-out: Kdapp FLT3): 0.099 µM; CATDSFLT3 [7, 11]: 0.87; potency estimated from few doses ([5]; Kinobeads two-dose, mixed cell lysate, read-out: Kdapp ACOX1): > 1 µM
Cc1cc(-c2ccnc(Nc3cccc(C#N)c3)n2)cc(C)c1O [GSK1440913A] | 0.1181 | 0.2295 | 0 |  | 0 | 0 | potency estimated from few doses [8]: 0.425 µM; potency estimated from few doses [2]: 0.12 µM
Cc1cc(-c2ccccn2)cc(C)c1/C=C/c1cncc(-c2nn[nH]n2)c1 [GW459057A] |  |  |  |  |  |  | potency estimated from few doses ([9]; read-out: Kdapp EPHB6): 0.162 µM; CATDSEPHB6 [9, 11]: 0.83
c1ccc(-c2cnc3nccnn23)cc1 [AH20685XX] |  |  |  |  |  |  | potency estimated from few doses [10]: > 1 µM
Cc1cc(-c2ccco2)cc(C)c1/C=C/c1cncc(-c2nn[nH]n2)c1 [GW458344A] |  |  |  |  |  |  | potency estimated from few doses ([9]; read-out: apparent Kd): 0.401 µM; CATDS ([9]; target EPHB6, concentration and target dependent selectivity at the apparent Kd): 1.000
CCn1cc(-c2ccnc3[nH]c(-c4cccc(CN(C)C)c4)cc23)c(-c2ccc(NC(=O)N(C)C)cc2)n1 [GSK1070916] | 0 | 0 | 0 | > 1 | 0 | 0 | 

The next lines start with results.

CATDS [1] | CATDS [2] | CATDS [3] | potency estimated from few doses [4] [µM] | CATDS [5] | CATDS [6] | SMILES | other results
0 | 0 | 0 | > 1 | 0 | 0 | CCc1nc(-c2cccc(N(C)S(=O)(=O)c3ccccc3)c2)c(-c2ccnc(Nc3ccc(N4CCN(C(C)=O)CC4)nc3)n2)s1 [GSK1645895A] | 
0.02228 | 0.01021 | 0 |  | 0 | 0 | O=c1[nH]ccc2nc(N[C@@H]3CCNC3)nc(Nc3ccc4c(c3)S(=O)(=O)CC4)c12 [GSK2181306A] | potency estimated from few doses [8]: 0.145 µM; potency estimated from few doses [2]: 0.8 µM
